Measurements reported in patent publication US20190211397A1, “INHIBITORS OF GPR132 FOR USE IN PREVENTING AND/OR TREATING CHEMOTHERAPY-INDUCED NEUROPATHIC PAIN” (Fraunhofer-Gesellschaft zur Foerderung der angewandten …, priority 2016, published 2019).
Entries after “also recorded” stand apart in the source; their conditions may differ.

How the values were obtained:
[1] = system: TRPV1; test: Calcium imaging of DRG neurons: TRPV1 sensitization (two capsaicin stimuli, Δratio); assay type: cell-based, mice
Procedure: (§1) DRG primary cultures were prepared as described previously (Brenneis et al., 2011 b). Briefly, twenty to thirty murine dorsal roots ganglia (DRGs) were dissected from spinal segments and transferred directly into ice-cold Hanks' balanced salt solution with CaCI2 and MgCI2 (lnvitrogen, Carlsbad, Calif., USA). The DRGs were than incubated with Neurobasal Medium (lnvitrogen, Carlsbad, Calif., USA) containing 500 U/ml collagenase (Sigma, Deisenhofen, Germany) and 2.5 U/ml dispase II (Roche, Mannheim, Germany) for 75 mins at 37° C. After removal of the collagenase/dispase-solution cells were washed three times with medium containing 10% FCS, penicillin/streptomycin/gentamycin (lnvitrogen, Carlsbad, Calif., USA) and incubated in 0.05% trypsin for 10 min at 37° C. After two washing steps, the cells were mechanically dissociated with a 1 ml pipette and plated on Poly-L-lysine (Sigma) coated coverslips. After incubation at 37° C. for 2 h, Neurobasal Medium containing glutamine (2 mm), penicillin (100 U/ml), streptomycin (100 μg/ml), B-27 and gentamicin (50 μg/ml) was added to the cells and incubated overnight. The neurons were used for Calcium imaging the next day.
Calcium-imaging experiments were performed with a Leica calcium-imaging setup, consisting of a Leica DMI 4000 b inverted microscope equipped with a DFC360 FX (CCD) camera, Fura-2 filters, and an N-Plan 10×/0.25 Ph1 objective (all from Leica), was used. Images were taken every 2 s and were processed with the LAS AF-software (Leica). For each experiment, an area with large cell numbers 24 h after preparation (see DRG primary cultures) was chosen and 40-110 cells were monitored simultaneously. Cells were loaded with 5 μM fura-2-AM-ester (Biotium), incubated for 45-60 min at 37° C. and washed with ringer solution (145 mM NaCI, 1.25 mM CaCl2, 1 mM MgCl2, 5 mM KCI, 10 mM D-glucose, and 10 mM HEPES, adjusted to pH 7.3). Baseline measurements were performed with ringer solution at a flow rate of 1-2 ml/min at room temperature. For the activation of TRPV1 we used a solution of 200 nM capsaicin (Sigma), for TRPA1 activation 50 μM allyl isothiocyanate (AITC, Fluka Analytic) and for TRPM8 100 μM L-menthol (Sigma) dissolved in ringer solution. For TRP-channel sensitization, cells were incubated for 2 mins with different concentrations (50 nM-1000 nM) of (±) 9-HODE (Cayman) or (±) 13-HODE (Cayman) before the second stimulus took place. For control stimulations, the corresponding volume of DMSO (Sigma) was mixed in ringer solution and applied with the same flow rate. 10 μM of the PKA inhibitor H89 (Tocris) or 1 μM of the PKC inhibitor GF1 09203X (Tocris) was co-incubated with fura-2 for 45 mins. As positive control for PKA activation 40 iJM 8-bromo-cAMP (Cayman) and for PKC activation 500 nM bradykinin (Cayman) was used. At the end of each measurement, 50 mM KCl was applied to identify neurons.

[2] = biological target: T1, TRPM8 (Mus musculus, UniProt Q8R4D5); test: Calcium imaging of DRG neurons: TRPM8 sensitization (menthol); assay type: cell-based, mice; conditions: activated with menthol 100 μM
T1 construct: endogenous in cells; host or cells: primary murine dorsal root ganglion (DRG) neurons
T1 sequence (Q8R4D5 whole entry): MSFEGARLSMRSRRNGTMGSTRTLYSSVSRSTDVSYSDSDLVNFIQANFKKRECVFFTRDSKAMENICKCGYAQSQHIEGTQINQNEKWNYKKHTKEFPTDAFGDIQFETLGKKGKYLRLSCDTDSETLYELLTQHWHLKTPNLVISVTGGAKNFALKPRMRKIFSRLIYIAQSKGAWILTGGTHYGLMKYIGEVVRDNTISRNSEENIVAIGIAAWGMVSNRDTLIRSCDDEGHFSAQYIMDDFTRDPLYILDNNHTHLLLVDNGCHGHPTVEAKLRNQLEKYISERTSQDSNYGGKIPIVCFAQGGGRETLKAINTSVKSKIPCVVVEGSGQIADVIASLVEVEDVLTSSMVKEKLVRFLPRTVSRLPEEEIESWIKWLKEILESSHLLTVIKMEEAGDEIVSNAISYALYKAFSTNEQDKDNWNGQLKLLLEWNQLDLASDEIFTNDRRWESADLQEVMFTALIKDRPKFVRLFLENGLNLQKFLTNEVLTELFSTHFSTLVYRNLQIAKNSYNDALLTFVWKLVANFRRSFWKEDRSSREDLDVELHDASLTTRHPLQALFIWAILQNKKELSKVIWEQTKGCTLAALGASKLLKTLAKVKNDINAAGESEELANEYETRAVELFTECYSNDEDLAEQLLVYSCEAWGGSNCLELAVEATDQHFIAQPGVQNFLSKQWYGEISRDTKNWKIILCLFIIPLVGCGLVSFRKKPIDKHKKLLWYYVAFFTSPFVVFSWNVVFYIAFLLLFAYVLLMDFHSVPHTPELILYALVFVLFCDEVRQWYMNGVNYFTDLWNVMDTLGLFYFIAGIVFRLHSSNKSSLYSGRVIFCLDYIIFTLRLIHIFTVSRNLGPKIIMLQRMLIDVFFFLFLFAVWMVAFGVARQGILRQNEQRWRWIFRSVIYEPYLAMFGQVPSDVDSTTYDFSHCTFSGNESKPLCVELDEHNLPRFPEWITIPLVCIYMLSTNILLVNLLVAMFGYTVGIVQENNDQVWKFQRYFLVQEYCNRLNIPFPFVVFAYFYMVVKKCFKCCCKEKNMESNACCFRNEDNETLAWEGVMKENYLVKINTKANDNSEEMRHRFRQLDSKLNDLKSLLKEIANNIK
Procedure: as §1, with “After incubation at 37° C. for 2 h, Neurobasal Medium containing glutamine (2 mm), penicillin (100 U/ml), streptomycin (100 μg/ml), B-27 and gentamicin (50 μg/ml) was added to the cells and incubated overnight. The neurons were used for Calcium imaging the next day.” left out
(§2) Calcium-imaging experiments were performed with a Leica calcium-imaging setup, consisting of a Leica DMI 4000 b inverted microscope equipped with a DFC360 FX (CCD) camera, Fura-2 filters, and an N-Plan 10×/0.25 Ph1 objective (all from Leica), was used. […] For each experiment, an area with large cell numbers 24 h after preparation (see DRG primary cultures) was chosen and 40-110 cells were monitored simultaneously. […]

[3] = biological target: T2, TRPA1 (Mus musculus, UniProt Q8BLA8); test: Calcium imaging of DRG neurons: TRPA1 sensitization (allyl isothiocyanate); assay type: cell-based, mice; conditions: activated with AITC 50 μM
T2 construct: endogenous in cells; host or cells: primary murine dorsal root ganglion (DRG) neurons
T2 sequence (Q8BLA8 whole entry): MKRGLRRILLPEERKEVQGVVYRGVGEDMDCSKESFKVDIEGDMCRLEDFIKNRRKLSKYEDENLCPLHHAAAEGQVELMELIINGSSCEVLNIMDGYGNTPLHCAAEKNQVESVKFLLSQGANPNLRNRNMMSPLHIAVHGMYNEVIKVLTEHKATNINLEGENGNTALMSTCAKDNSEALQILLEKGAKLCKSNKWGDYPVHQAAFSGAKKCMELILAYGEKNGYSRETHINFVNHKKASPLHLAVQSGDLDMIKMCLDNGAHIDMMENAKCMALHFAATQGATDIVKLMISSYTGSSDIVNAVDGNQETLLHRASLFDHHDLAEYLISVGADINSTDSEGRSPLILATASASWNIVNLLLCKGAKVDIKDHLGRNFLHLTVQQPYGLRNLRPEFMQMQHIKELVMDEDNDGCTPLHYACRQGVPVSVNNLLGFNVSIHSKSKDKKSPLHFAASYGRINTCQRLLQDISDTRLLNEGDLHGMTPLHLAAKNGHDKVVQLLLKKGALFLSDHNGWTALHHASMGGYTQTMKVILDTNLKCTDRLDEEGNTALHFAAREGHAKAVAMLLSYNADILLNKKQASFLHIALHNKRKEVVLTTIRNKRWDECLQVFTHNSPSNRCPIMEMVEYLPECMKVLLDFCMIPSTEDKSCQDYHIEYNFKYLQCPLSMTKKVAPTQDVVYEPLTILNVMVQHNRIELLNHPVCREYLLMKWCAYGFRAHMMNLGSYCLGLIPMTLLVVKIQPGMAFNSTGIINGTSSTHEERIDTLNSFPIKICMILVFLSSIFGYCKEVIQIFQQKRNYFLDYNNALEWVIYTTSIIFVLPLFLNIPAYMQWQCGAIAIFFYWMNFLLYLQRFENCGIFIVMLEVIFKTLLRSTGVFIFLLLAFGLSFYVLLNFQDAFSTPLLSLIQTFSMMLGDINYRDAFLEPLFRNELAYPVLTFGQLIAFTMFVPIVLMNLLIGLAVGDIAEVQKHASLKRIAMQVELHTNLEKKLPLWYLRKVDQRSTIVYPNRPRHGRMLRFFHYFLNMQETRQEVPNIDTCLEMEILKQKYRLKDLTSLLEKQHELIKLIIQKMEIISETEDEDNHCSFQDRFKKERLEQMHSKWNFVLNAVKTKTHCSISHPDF
Procedure: as §1, with “After incubation at 37° C. for 2 h, Neurobasal Medium containing glutamine (2 mm), penicillin (100 U/ml), streptomycin (100 μg/ml), B-27 and gentamicin (50 μg/ml) was added to the cells and incubated overnight. The neurons were used for Calcium imaging the next day.” left out
as §2

[4] = biological target: T3, G2A receptor (GPR132) (Homo sapiens, UniProt Q9UNW8); test: Calcium flux in COS-1 cells cotransfected with aequorin and G2A; assay type: cell-based; parameters: expressed in transfected cells; conditions: COS-1 cells transfected with GPR132 and aequorin, 10 nM-10 μM
T3 sequence (Q9UNW8 1-380): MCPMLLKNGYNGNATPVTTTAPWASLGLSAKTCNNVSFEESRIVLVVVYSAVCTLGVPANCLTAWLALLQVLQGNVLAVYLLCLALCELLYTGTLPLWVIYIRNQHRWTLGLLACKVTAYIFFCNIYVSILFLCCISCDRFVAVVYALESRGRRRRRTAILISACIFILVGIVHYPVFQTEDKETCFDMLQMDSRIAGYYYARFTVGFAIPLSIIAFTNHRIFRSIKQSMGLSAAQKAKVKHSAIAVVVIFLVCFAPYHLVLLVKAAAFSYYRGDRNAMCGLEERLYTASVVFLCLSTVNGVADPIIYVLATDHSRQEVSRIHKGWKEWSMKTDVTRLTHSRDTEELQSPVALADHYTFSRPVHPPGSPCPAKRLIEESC
Procedure: For studies of heterologously expressed G2A receptor, COS-1 cells were seeded in white walls-clear bottom 96-well plates and transfected with a plasmid encoding a calcium-sensitive bioluminescent fusion protein between aequorin and GFP (Baubet et al., 2000) together with plasmid containing cDNA for G2A or control DNA (empty vector, mock) at a concentration of 50 ng/well by using FuGENE 6 reagent (Promega) following manufacturer's instructions. Forty eight hours later, cells were loaded with 5 μM coelenterazine h (Invitrogen) in HBSS containing 1.8 mM CaCl2 and 10 mM glucose for 2 h at 37° C. Measurements were performed by using a luminometric plate reader (Flexstation 3). The area under each calcium transient was calculated by using SoftMaxPro software and expressed as area under the curve (AUC).

CCCCC/C=C\C=C\C(O)CCCCCCCC(=O)O (stereo not drawn) [9-HODE, 9-hydroxy-10E,12Z-octadecadienoic acid]
9-HODE-induced TRPV1 sensitization in G2A-deficient DRG neurons ([1]; DRG cultures of G2A-deficient mice, 9-HODE 200 nM 120 s): not in G2A-deficient mice; also recorded: absent | sensitization of TRPV1 (Δratio of first and second capsaicin stimulus) ([1]; DRG neurons, lipid incubated 2 minutes before second capsaicin stimulus, 0 to 1000 nM): dose-dependently sensitizes the TRPV1 channel; also recorded: concentration-dependently induced a sensitization of TRPV1 | calcium flux of second vs first capsaicin stimulus (Δratio) ([1]; wildtype DRG neurons, lipid 200 nM 120 s, capsaicin 200 nM 30 s): increased calcium flux compared to the first stimulus | sensitizing effects for TRPM8 [2]: no sensitizing effects | sensitizing effects for TRPA1 [3]: no sensitizing effects | calcium release (bioluminescence of aequorin) [4]: caused calcium release in a concentration-dependent manner
